Results: paper PMC8371902, “Phase 1 study of M2698, a p70S6K/AKT dual inhibitor, in patients with advanced cancer” (Journal of Hematology & Oncology, 2021)
Entries after “also recorded” stand apart in the source; their conditions may differ.

System: patients with advanced metastatic cancer
Text: In this phase 1 study, dose escalation was followed by expansion cohorts of once-daily, oral M2698 in continuous 21-day cycles. Primary objectives were to determine the maximum tolerated dose (MTD), dose-limiting toxicities (DLTs), and recommended phase 2 dose (RP2D). Secondary objectives were to assess safety and tolerability, pharmacokinetics (PK, including food effect) and antitumor activity. Pharmacodynamic biomarker assessments were exploratory. Treatment was discontinued if there was disease progression, toxicity or consent withdrawal.
In Part 1, M2698 monotherapy was investigated in a dose escalation with a food effect cohort. In Part 2, M2698 was investigated as monotherapy (expansion cohort) to further characterize safety, tolerability and pharmacokinetics, and assess antitumor activity in PAM + patients without confounding markers (exploratory).
Dose escalation analysis included all patients who experienced a DLT and those who received ≥ 80% of planned M2698 doses in cycle 1 without experiencing a DLT. Safety analysis included all patients who received ≥ 1 dose of M2698. PK analysis included all patients who received ≥ 1 dose of M2698 and had measurable plasma concentrations. Dose proportionality was tested using the power model (linear regression approach on the log -transformed scale).

NC(=O)c1cccc2c(N[C@H](CN3CCC3)c3ccc(Cl)c(C(F)(F)F)c3)ncnc12 [M2698]
M2698-related TEAE: Vomiting (Overall N=62): 2 (3.2) n (%) | M2698-related TEAE: White blood cell count decreased (Overall N=62): 1 (1.6) n (%) | Maximum tolerated dose (MTD) of M2698 (daily): no formal MTD was determined; also recorded: no MTD was reached | Number of DLTs observed (dose escalation): two | Grade >3 TEAE: GGT increased (in vivo): 4.8% | Grade >3 TEAE: abdominal pain (in vivo): 3.2% | Grade >3 TEAE: acute kidney injury (in vivo): 4.8% | Grade >3 TEAE: acute respiratory failure (in vivo): 3.2% | Grade >3 TEAE: anemia (in vivo): 9.7% | Grade >3 TEAE: blood AP increased (in vivo): 3.2% | Grade >3 TEAE: blood creatine phosphokinase increased (in vivo): 3.2% | Grade >3 TEAE: cardiac arrest (in vivo): 3.2% | Grade >3 TEAE: constipation (in vivo): 3.2% | Grade >3 TEAE: disease progression (in vivo): 3.2% | Grade >3 TEAE: hypertension (in vivo): 3.2% | Grade >3 TEAE: hyponatremia (in vivo): 6.5% | Grade >3 TEAE: nausea (in vivo): 3.2% | Grade >3 TEAE: pleural effusion (in vivo): 3.2% | Grade >3 TEAE: pneumonia (in vivo): 4.8% | Grade >3 TEAE: septic shock (in vivo): 3.2% | Grade >3 TEAE: small intestinal obstruction (in vivo): 3.2% | Grade >3 TEAE: urinary tract infection (in vivo): 4.8% | Grade >3 TEAE: vomiting (in vivo): 4.8% | M2698-related TEAE abnormal dreams (in vivo): 9.7% | M2698-related TEAE diarrhea (in vivo): 11.3% | M2698-related TEAE fatigue (in vivo): 6.5% | M2698-related TEAE nausea (in vivo): 19.4% | M2698-related TEAE tremor (in vivo): 6.5% | M2698-related TEAE: Abnormal dreams (in vivo): 6 (9.7) number of patients (percent) | M2698-related TEAE: Diarrhea (in vivo): 7 (11.3) number of patients (percent) | M2698-related TEAE: Fatigue (in vivo): 4 (6.5) number of patients (percent) | M2698-related TEAE: Nausea (in vivo): 12 (19.4) number of patients (percent) | M2698-related TEAE: Tremor (in vivo): 4 (6.5) number of patients (percent) | M2698-related TEAEs: patients with ≥1 event (in vivo): 34 (54.8) number of patients (percent) | Patients with M2698-related TEAEs (in vivo): 54.8% | Patients with M2698-related TEAEs grade ≥ 3 (in vivo): 12.9% | Serious TEAE related to M2698 (in vivo): 5 (8.1) number of patients (percent) | Serious TEAEs (in vivo): 26 (41.9) number of patients (percent) | Serious TEAEs attributed to M2698 (in vivo): 8.1 % of patients | TEAE leading to permanent discontinuation of any trial treatment (in vivo): 6 (9.7%) number of patients (percent) | TEAE leading to temporary discontinuation of M2698 (in vivo): 29 (46.8%) number of patients (percent) | TEAE related to M2698 (in vivo): 34 (54.8%) number of patients (percent) | TEAE related to M2698, grade ≥ 3 (in vivo): 8 (12.9%) number of patients (percent) | TEAE: ALT increased (in vivo): 4 (6.5) n (%) | TEAE: AST increased (in vivo): 2 (3.2) n (%) | TEAE: Abdominal pain (in vivo): 5 (8.1) n (%) | TEAE: Abnormal dreams (in vivo): 6 (9.7) n (%) | TEAE: Anemia (in vivo): 13 (21.0) n (%) | TEAE: Anxiety (in vivo): 6 (9.7) n (%) | TEAE: Arthralgia (in vivo): 1 (1.6) n (%) | TEAE: Asthenia (in vivo): 2 (3.2) n (%) | TEAE: Back pain (in vivo): 2 (3.2) n (%) | TEAE: Blood AP increased (in vivo): 4 (6.5) n (%) | TEAE: Blood bilirubin increased (in vivo): 2 (3.2) n (%) | TEAE: Blood creatinine increased (in vivo): 7 (11.3) n (%) | TEAE: Chills (in vivo): 2 (3.2) n (%) | TEAE: Constipation (in vivo): 14 (22.6) n (%) | TEAE: Cough (in vivo): 11 (17.7) n (%) | TEAE: Decreased appetite (in vivo): 9 (14.5) n (%) | TEAE: Dehydration (in vivo): 7 (11.3) n (%) | TEAE: Depression (in vivo): 3 (4.8) n (%) | TEAE: Diarrhea (in vivo): 17 (27.4) n (%) | TEAE: Disease progression (in vivo): 2 (3.2) n (%) | TEAE: Dizziness (in vivo): 9 (14.5) n (%) | TEAE: Dry mouth (in vivo): 3 (4.8) n (%) | TEAE: Dry skin (in vivo): 0 (0) n (%) | TEAE: Dyspnea (in vivo): 4 (6.5) n (%) | TEAE: Edema peripheral (in vivo): 1 (1.6) n (%) | TEAE: Fatigue (in vivo): 21 (33.9) n (%) | TEAE: GGT increased (in vivo): 7 (11.3) n (%) | TEAE: Gait disturbance (in vivo): 2 (3.2) n (%) | TEAE: Headache (in vivo): 3 (4.8) n (%) | TEAE: Hyperglycemia (in vivo): 1 (1.6) n (%) | TEAE: Hypertension (in vivo): 4 (6.5) n (%) | TEAE: Hypoalbuminemia (in vivo): 5 (8.1) n (%) | TEAE: Hypocalcemia (in vivo): 4 (6.5) n (%) | TEAE: Hypokalemia (in vivo): 4 (6.5) n (%) | TEAE: Hypomagnesemia (in vivo): 2 (3.2) n (%) | TEAE: Hyponatremia (in vivo): 5 (8.1) n (%) | TEAE: Insomnia (in vivo): 2 (3.2) n (%) | TEAE: Muscle spasms (in vivo): 0 (0) n (%) | TEAE: Muscular weakness (in vivo): 1 (1.6) n (%) | TEAE: Nasopharyngitis (in vivo): 1 (1.6) n (%) | TEAE: Nausea (in vivo): 23 (37.1) n (%) | TEAE: Neutropenia (in vivo): 1 (1.6) n (%) | TEAE: Pain in extremity (in vivo): 3 (4.8) n (%) | TEAE: Pyrexia (in vivo): 11 (17.7) n (%) | TEAE: Rash (in vivo): 1 (1.6) n (%) | TEAE: Tremor (in vivo): 5 (8.1) n (%) | TEAE: Urinary tract infection (in vivo): 5 (8.1) n (%) | TEAE: Vision blurred (in vivo): 3 (4.8) n (%) | TEAE: Vomiting (in vivo): 12 (19.4) n (%) | TEAE: Weight decrease (in vivo): 4 (6.5) n (%) | TEAEs (in vivo): 61 (98.4%) number of patients (percent) | TEAEs, grade ≥ 3 (in vivo): 36 (58.1%) number of patients (percent) | TEAE leading to death (no deaths considered related to M2698, trastuzumab or tamoxifen): 6 (9.7) number of patients (percent) | Recommended phase 2 dose (RP2D) of M2698 (once daily (QD)): 240 mg | Psychiatric event attributed to M2698 (one patient, 320 mg, cycle 2): grade 3 psychosis | Grade 2–3 gastrointestinal adverse events requiring dose reduction (patients with prolonged exposure to M2698 ≥ 320 mg): 19.4%
